Source: patent US10966994B2, “Thromboxane receptor antagonists” (ATXA THERAPEUTICS LIMITED, priority 2015, dated 2021)

What was measured:
[1] = molecular target: T1, TPα (Homo sapiens, UniProt P21731); experiment: 8-iso-PGF2α-mediated calcium mobilization in HEK.TPα cells; type: cell-based; settings: 10 μM 8-iso-PGF2α, estimated IC50, read-out: IC50 values for inhibition of 8-iso-PGF2α-mediated [Ca2+]i mobilization, TPα
T1 construct: expressed in transfected cells; host or cells: HEK 293 (HEK.TPα, isolate HR #4)
T1 sequence (P21731 1-343): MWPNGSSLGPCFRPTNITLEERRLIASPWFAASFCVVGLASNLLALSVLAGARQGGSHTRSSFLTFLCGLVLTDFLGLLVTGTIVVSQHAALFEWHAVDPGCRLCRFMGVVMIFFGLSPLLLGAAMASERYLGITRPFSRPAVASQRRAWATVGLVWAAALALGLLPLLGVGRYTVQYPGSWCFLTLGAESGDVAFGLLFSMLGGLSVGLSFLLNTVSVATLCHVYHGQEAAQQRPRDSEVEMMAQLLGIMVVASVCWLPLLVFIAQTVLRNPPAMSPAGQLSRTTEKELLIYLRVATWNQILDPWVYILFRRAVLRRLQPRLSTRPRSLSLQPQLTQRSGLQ
Source text: (§1) Effect of NTP42-NTP48 on 8-iso-PGF2α-mediated Calcium Mobilization In addition, to assessment of the compounds to antagonise U46619-mediated responses, the ability of NTP42 & NTP43 to inhibit the partial TP agonist 8-iso-PGF2α has been examined through calcium mobilization assays in HEK.TPα and HEK.TPβ cells.
(§2) Data is presented as the mean (±S.E.M.) percentage of the agonist-induced response in vehicle-treated cells (Percentage of Control; %) and represents data from at least 3 independent experiments were cells were treated in duplicate, except NTP48.

[2] = molecular target: IP receptor (Homo sapiens, UniProt P43119); experiment: Specificity testing, IP receptor signaling; type: cell-based
Method: (§3) There is no or minimal inhibition of the majority of the non-TP-mediated signaling observed in the presence of either NTP42 & NTP48. Where there is inhibition of signaling, it is observed at the 10 μM concentration only. […] Compared to NTP42, NTP48 has less of an effect on the signaling of the non-TP prostanoid receptors and therefore, may be considered more favorable in this context.

[3] = molecular target: T2, TPβ (Homo sapiens, UniProt P21731); experiment: 8-iso-PGF2α-mediated calcium mobilization in HEK.TPβ cells; type: cell-based; settings: 10 μM 8-iso-PGF2α, estimated IC50, read-out: IC50 values for inhibition of 8-iso-PGF2α-mediated [Ca2+]i mobilization, TPβ
T2 construct: expressed in transfected cells; host or cells: HEK 293 (HEK.TPβ, isolate EM #8)
Source text: as §1, §2

[4] = molecular target: T3, thrombin (PAR1) receptors (Homo sapiens, UniProt P25116); experiment: Specificity testing, thrombin (PAR1) receptor signaling
T3 sequence (P25116 22-425): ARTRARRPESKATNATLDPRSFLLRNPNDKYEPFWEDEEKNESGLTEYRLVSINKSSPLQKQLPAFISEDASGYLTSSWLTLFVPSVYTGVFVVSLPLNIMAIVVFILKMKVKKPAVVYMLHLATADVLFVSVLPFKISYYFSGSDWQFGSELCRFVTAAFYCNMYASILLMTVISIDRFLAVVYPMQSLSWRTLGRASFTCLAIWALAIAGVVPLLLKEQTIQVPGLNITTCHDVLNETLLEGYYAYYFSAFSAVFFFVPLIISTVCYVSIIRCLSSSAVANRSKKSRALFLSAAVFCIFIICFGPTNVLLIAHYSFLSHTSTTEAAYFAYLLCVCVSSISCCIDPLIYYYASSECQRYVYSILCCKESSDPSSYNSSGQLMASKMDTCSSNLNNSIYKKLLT

[5] = molecular target: FP1 receptor (Homo sapiens, UniProt P43088); experiment: Specificity testing, FP1 receptor signaling; type: cell-based
[6] = molecular target: T1, TPα; experiment: U46619-mediated calcium mobilization in HEK.TPα cells; type: cell-based; settings: for IC50: 1 μM U46619, estimated IC50, mean ± S.E.M., read-out: IC50 values for Inhibition of U46619-Mediated [Ca2+]i Mobilisation, TPα; for inhibition of U46619-mediated calcium mobilization, TPα (in words): 1 μM U46619
Method: NTP42-NTP49, northern group variants of NTP4, were assessed through calcium mobilization assays using proprietary HEK 293 cells over-expressing the thromboxane (TX)A2 receptor, α (TPα) and β (TPβ) isoforms, referred to as HEK.TPα and HEK.TPβ cells, respectively. The initial screening involved dose-responses assays (concentrations used 0.0001 (TPβ only), 0.001, 0.1, 1 & 10 μM; (TPα and TPβ)) followed by more focused, full dose response assays (concentration range: 0.00001 to 10 μM) for determination of IC50 values where the effect of the compounds on calcium mobilized in response to the TXA2 mimetic U46619 (1 μM) were performed in side-by-side comparison with the key lead compounds TP20 and NTP4.
As stated, NTP42-NTP49 were screened through calcium mobilization assays using HEK.TPα and HEK.TPβ cells over-expressing the thromboxane (TX)A2 receptor, α (TPα) and β (TPβ) isoforms, respectively. The initial screening involved dose-response assays where the compounds, used at 0.0001 (TPβ only), 0.001, 0.1, 1 & 10 μM (TPα and TPβ), were assessed for their ability to inhibit the TXA2 mimetic U46619 (1 μM). The compounds were tested in side-by-side assays with the previously identified key lead compounds TP20 and NTP4.
(§4) HEK.TPα (HR #4) cells, preloaded with Fluo-4, were incubated with the TP20, NTP4, NTP42, NTP43, NTP44, NTP45, NTP47, NTP48 & NTP49 where each antagonist was used at 0.001, 0.1, 1 & to 10 μM, as indicated, prior to stimulation with 1 μM U46619. Data is presented as the mean (±S.E.M.) percentage of the agonist-induced response in vehicle-treated cells (Percentage of Control; %) and represents data from at least 4 independent experiments were cells were treated in duplicate.
as §4, with “NTP42, NTP43 and” for “NTP42, NTP43, NTP44, NTP45, NTP47,”, “NTP48” for “NTP48 & NTP49”, “at 0.00001-10” for “at 0.001, 0.1, 1 & to 10”, “the agonist induced” for “the agonist-induced”, “least 3” for “least 4”

[7] = molecular target: T4, DP1 receptor (Homo sapiens, UniProt Q13258); experiment: Specificity testing, DP1 receptor signaling; type: cell-based
T4 sequence (Q13258 1-359): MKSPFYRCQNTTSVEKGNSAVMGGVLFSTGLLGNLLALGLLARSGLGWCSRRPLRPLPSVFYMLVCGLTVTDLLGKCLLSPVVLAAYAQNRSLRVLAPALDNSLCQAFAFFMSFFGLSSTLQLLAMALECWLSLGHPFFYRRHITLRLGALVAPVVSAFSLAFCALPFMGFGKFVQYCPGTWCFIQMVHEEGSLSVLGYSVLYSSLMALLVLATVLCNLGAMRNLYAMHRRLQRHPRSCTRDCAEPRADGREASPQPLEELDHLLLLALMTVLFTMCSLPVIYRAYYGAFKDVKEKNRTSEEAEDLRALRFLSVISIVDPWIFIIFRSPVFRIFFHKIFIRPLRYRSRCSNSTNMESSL
Method: as §3

[8] = maximal inhibition, at 10 μM only

Chain of IP receptor (P43119 whole entry): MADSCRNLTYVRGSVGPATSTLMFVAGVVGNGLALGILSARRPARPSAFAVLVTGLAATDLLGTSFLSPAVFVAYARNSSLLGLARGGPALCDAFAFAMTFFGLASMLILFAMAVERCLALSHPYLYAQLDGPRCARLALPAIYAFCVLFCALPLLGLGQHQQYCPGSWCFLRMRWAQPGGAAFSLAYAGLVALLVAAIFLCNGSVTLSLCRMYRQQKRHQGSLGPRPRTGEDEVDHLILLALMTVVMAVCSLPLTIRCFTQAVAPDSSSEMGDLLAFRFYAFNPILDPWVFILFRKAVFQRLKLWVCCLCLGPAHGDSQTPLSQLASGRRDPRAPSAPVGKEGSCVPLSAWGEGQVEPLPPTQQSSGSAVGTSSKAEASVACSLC
Chain of FP1 receptor (P43088 whole entry): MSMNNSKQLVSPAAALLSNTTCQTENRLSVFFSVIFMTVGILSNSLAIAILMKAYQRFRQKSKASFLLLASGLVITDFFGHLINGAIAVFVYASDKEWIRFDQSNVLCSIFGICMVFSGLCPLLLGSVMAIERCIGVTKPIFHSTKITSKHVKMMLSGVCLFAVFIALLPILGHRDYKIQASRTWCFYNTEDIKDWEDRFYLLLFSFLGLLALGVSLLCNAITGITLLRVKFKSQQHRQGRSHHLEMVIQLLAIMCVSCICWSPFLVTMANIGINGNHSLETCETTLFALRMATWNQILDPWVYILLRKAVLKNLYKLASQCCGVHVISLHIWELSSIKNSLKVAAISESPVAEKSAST
T2 sequence (P21731 1-407 isoform P21731-2): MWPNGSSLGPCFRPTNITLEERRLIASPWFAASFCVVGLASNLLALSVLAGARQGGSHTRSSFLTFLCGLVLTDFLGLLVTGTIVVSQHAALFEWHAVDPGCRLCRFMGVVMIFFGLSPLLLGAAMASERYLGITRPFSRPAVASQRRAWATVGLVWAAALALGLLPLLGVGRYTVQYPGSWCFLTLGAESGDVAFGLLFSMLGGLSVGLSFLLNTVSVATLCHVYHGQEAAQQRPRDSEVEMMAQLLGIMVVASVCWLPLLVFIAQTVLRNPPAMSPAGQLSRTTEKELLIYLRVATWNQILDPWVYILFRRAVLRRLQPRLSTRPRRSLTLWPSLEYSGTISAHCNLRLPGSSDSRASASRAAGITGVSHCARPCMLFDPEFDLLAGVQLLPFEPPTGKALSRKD

Structure (SMILES)	IC50 [1] [nM]	effect on the IP receptor [2]	IC50 [3] [nM]	effect on signaling through thrombin (PAR1) receptors [4]	effect on the FP1 receptor (FP-mediated signaling) [5]	IC50 [6] [nM]	effect on the DP1 receptor (DP-mediated signaling) [7]	inhibition of U46619-mediated calcium mobilization, TPα (in words) [6]	percentage reduction in responses, IP [2, 8] [%]	percentage reduction in responses, DP1 [7, 8] [%]
CC(C)(C)NC(=O)NS(=O)(=O)c1cc(C#N)ccc1Oc1cccc(-c2ccc(OC(F)(F)F)cc2)c1 [NTP43]	30.7 ± 5.05	not to exhibit any effect	9 ± 1.6	neither NTP42, NTP43 nor NTP48 exhibited any effect	not to exhibit any effect	105 ± 7.95	not to exhibit any effect			
COc1ccc(-c2cccc(Oc3ccc(C#N)cc3S(=O)(=O)NC(=O)NC(C)(C)C)c2)cc1 [NTP4, reference compound]	103 ± 11.1	like TP20 and NTP4, neither NTP42, NTP43 nor NTP48 exhibited any effect	58 ± 6.31	like TP20 and NTP4, neither NTP42, NTP43 nor NTP48 exhibited any effect	like TP20 and NTP4, neither NTP42, NTP43 nor NTP48 exhibited any effect		like TP20 and NTP4, neither NTP42, NTP43 nor NTP48 exhibited any effect	potently inhibited		
COc1ccc(-c2cccc(Oc3ccc([N+](=O)[O-])cc3S(=O)(=O)NC(=O)NC(C)(C)C)c2)cc1 [TP20, reference compound]	46.4 ± 4.24	like TP20 and NTP4, neither NTP42, NTP43 nor NTP48 exhibited any effect	17 ± 2.12	like TP20 and NTP4, neither NTP42, NTP43 nor NTP48 exhibited any effect	like TP20 and NTP4, neither NTP42, NTP43 nor NTP48 exhibited any effect	125 ± 11.4	like TP20 and NTP4, neither NTP42, NTP43 nor NTP48 exhibited any effect	potently inhibited		
CN(C)C(=O)c1ccc(-c2cccc(Oc3ccc(C#N)cc3S(=O)(=O)NC(=O)NC(C)(C)C)c2)cc1 [NTP48, 4-[3-[2-(tert-Butylcarbamoylsulfamoyl)-4-cyano-phenoxy]phenyl]-N,N-dimethyl-benzamide]	29.3 ± 3.87	no effect	15.4 ± 2.16	neither NTP42, NTP43 nor NTP48 exhibited any effect	no effect	90.1 ± 6.43	no effect			
CC(C)(C)NC(=O)NS(=O)(=O)c1cc(C#N)ccc1Oc1cccc(-c2ccc(OC(F)F)cc2)c1 [NTP42]	12.8 ± 1.42	no effect	8 ± 1	neither NTP42, NTP43 nor NTP48 exhibited any effect	no effect	56.2 ± 4.84	no effect		50	< 30
